Measurements: patent publication US11760773B2, “Small molecule drug conjugates of gemcitabine monophosphate” (MaveriX Oncology, Inc., priority 2018, dated 2023)

Columns and labels:
UT-SCC-10 = test: Tumor cell proliferation (alamarBlue) cytotoxicity assay, UT-SCC-10; type: cell-based, human; conditions: Homo sapiens; UT-SCC-10, 72 hours treatment
Description: (§1) A tumor cell proliferation assay was used to determine cytotoxicity IC50 values for the phosphate prodrug Compounds 1-9, the parent non-phosphorylated SMDC parent compounds, and the effector (gemcitabine) across eight primary early-passage human head and neck squamous cell carcinoma cell lines including UT-SCC-5, UT-SCC-8, UT-SCC-9, UT-SCC-10, UT-SCC-14, UT-SCC-16A, UT-SCC-16B, and UT-SCC-24A.
(§2) UTSCC cells were seeded at 4000 cells/100 I/well on 96-well black clear-bottom tissue culture plate. Cells were incubated at 37° C. and 5% CO2 overnight to allow them to recover and re-attach. The next day cells were treated with the test compound (0-100 μM) for 72 hours. After treatment, cell proliferation was measured by Fluorescent quantitation of alamarBlue reagent. The alamarBlue assay incorporates a fluorometric/colorimetric growth indicator based on detection of metabolic activity. Specifically, resazurin, the active ingredient of alamarBlue reagent, is blue in color and virtually non-fluorescent. Upon entering cells, resazurin is reduced to resorufin, a compound that is red in color and highly fluorescent.
(§3) Continued cell growth maintains a reduced environment, therefore increasing the overall fluorescence and color of the media surrounding cells. The fluorescence intensity of alamarBlue reagent was directly proportional to cell number. To perform the alamarBlue assay, 10 I of alamarBlue reagent was added to each well and the plate was incubated at 37° C. for an additional 2 hour. Fluorescence intensity was measured at an excitation of 530 nm and an emission of 590 nm using a BioTek Synergy™ 2 microplate reader.
(§4) Cell proliferation assays in triplicate were performed at each concentration. The fluorescent intensity data were analyzed using the computer software, Graphpad Prism. In the absence of the compound, the fluorescent intensity (Ft) in each data set was defined as 100%. In the absence of cells, the fluorescent intensity (Fb) in each data set was defined as 0%. The percent cell in the presence of each compound was calculated according to the following equation: % cell=(F−Fb)/(Ft−Fb), where F=the fluorescent intensity in the presence of the compound, Fb=the fluorescent intensity in the absence of cells, and Ft=the fluorescent intensity in the absence of the compound. The values of % cell versus a series of compound concentrations were then plotted using non-linear regression analysis of Sigmoidal dose-response curve generated with the equation Y=B+(T−B)/1+10^((Log EC50-X)×Hill Slope) where Y=percent cell, B=minimum percent cell, T=maximum percent cell, X=logarithm of compound and Hill Slope=slope factor or Hill coefficient. The IC50 value was determined by the concentration causing a half-maximal percent activity.

UT-SCC-14 = test: Tumor cell proliferation (alamarBlue) cytotoxicity assay, UT-SCC-14; type: cell-based, human; conditions: Homo sapiens; UT-SCC-14, 72 hours treatment
Description: as §1, §2, §3, §4

UT-SCC-16A = test: Tumor cell proliferation (alamarBlue) cytotoxicity assay, UT-SCC-16A; type: cell-based, human; conditions: Homo sapiens, 72 hours treatment
Description: as §1, §2, §3, §4

UT-SCC-24A = test: Tumor cell proliferation (alamarBlue) cytotoxicity assay, UT-SCC-24A; type: cell-based, human; conditions: Homo sapiens, 72 hours treatment
Description: as §1, §2, §3, §4

[1] = Comparative plasma PK of Int 1-4 versus gemcitabine in mouse (study a); type: in vivo; conditions: plasma, CD-1 mice; for MRT inf: read-out: MRT0-inf; for MRT last: read-out: MRT0-last
[2] = Plasma PK of Int 3-3 in CD-1 mice (study c); type: in vivo; conditions: after iv Int 3-3 8.8 mg/kg
Description: Objectives: to determine the plasma pharmacokinetics of Int 3-3 following a single intravenous infusion of Int 3-3 at 8.83 mg/kg in CD-1 mice
PK measurements: compare PK parameters C0, CL, Vdss, Cmax, tmax, t1/2, AUC(0-t), AUC(0-inf), MRT(0-t), MRT(0-inf) for Int 3-3.

[3] = Comparative dog plasma PK of Int 1-4 versus gemcitabine (study k); type: in vivo; conditions: male beagle dog; for AUC(0-inf): read-out: AUC0-inf; for Cmax: read-out: Cmax; for MRT inf: read-out: MRT0-inf; for MRT last: read-out: MRT0-last
Description: Objectives: to compare the plasma pharmacokinetics and stability of Int-4 in plasma following single intravenous infusion administration of Int 1-4 at 5 mg/kg and 10 mg/kg versus gemcitabine at 5 mg/kg in the male Beagle dog

[4] = Liver microsomal stability, human; type: in vitro ADME
[5] = Metabolic stability in liver hepatocytes, human; type: in vitro ADME
[6] = Metabolic stability in liver hepatocytes, rat; type: in vitro ADME
[7] = Metabolic stability in liver hepatocytes, mouse; type: in vitro ADME
[8] = Metabolic stability in liver hepatocytes, dog; type: in vitro ADME
[9] = Metabolic stability in liver hepatocytes, monkey; type: in vitro ADME
[10] = Comparative dog plasma PK of Int 1-4 versus gemcitabine (study k); type: in vivo; conditions: male beagle dog, after iv gemcitabine 5.29 mg/kg, read-out: MRT0-inf
[11] = in the clinic; cited from earlier work
[12] = mouse, after iv Int 1-4 9.4 mg/kg
[13] = mouse, after iv gemcitabine 5.29 mg/kg
[14] = after iv gemcitabine 5.29 mg/kg
[15] = after iv Int 1-4 5 mg/kg (study k)
[16] = after iv Int 1-4 10 mg/kg (study k)

Q: What does the source list for `Nc1ccn([C@@H]2O[C@H](CO)[C@@H](O)C2(F)F)c(=O)n1` [Gemcitabine, gemcitabine]?
A: IC50 (UT-SCC-10): 9 nM; IC50 (UT-SCC-14): 6 nM; IC50 (UT-SCC-16A): 61 nM; IC50 (UT-SCC-24A): 14 nM; AUC(0-t) [1, 12]: 64.9 ng·h/mL; half-life [1, 12]: 58.1 min; AUC(0-inf) ([1]; mouse, after iv Int 1-4 9.4 mg/kg, read-out: AUC0-inf): 74.1 ng·h/mL; Cmax ([1]; mouse, after iv Int 1-4 9.4 mg/kg, read-out: Cmax): 81.9 ng/mL; MRT inf [1, 12]: 76.2 min; MRT last [1, 12]: 52.5 min; Tmax ([1]; mouse, after iv Int 1-4 9.4 mg/kg, read-out: Tmax): 8.34 min; C0 [1, 13]: 6430 ng/mL; clearance [1, 13]: 59 mL/min/kg; half-life [1, 13]: ~54 min; MRT inf [1, 13]: 32.5 min; MRT last [1, 13]: 30.2 min; Vd ([1]; mouse, after iv gemcitabine 5.29 mg/kg, read-out: Vdss): 1.84 L/kg; AUC0-inf/AUC0-last ([1]; after iv Int 1-4 9.4 mg/kg): 116%; AUC0-inf/AUC0-last [1, 14]: 101%; AUC0-last [1, 14]: 1383 ng·h/mL; AUC(0-inf) [1, 14]: 1393 ng·h/mL; T1/2 [1, 14]: 52.1 min; AUC0-inf/AUC0-last [2]: 113%; AUC(0-t) ([2]; mouse): 63.5 ng·h/mL; half-life ([2]; mouse): 82.8 min; AUC(0-inf) ([2]; mouse, read-out: AUC0-inf): 71.9 ng·h/mL; Cmax ([2]; mouse, read-out: Cmax): 73.4 ng/mL; MRT inf ([2]; mouse, read-out: MRT0-inf): 1.69 h; MRT last ([2]; mouse, read-out: MRT0-last): 1.13 h; Tmax ([2]; mouse, read-out: Tmax): 3.67 min; AUC(0-t) [3, 15]: 2330 ng·h/mL; half-life [3, 15]: 121 min; AUC(0-inf) [3, 15]: 2390 ng·h/mL; Cmax [3, 15]: 872 ng/mL; MRT inf [3, 15]: 2.7 h; MRT last [3, 15]: 2.48 h; AUC(0-t) [3, 16]: 4140 ng·h/mL; half-life [3, 16]: 96 min; AUC(0-inf) [3, 16]: 4290 ng·h/mL; MRT inf [3, 16]: 2.45 h; MRT last [3, 16]: 2.16 h; AUC(0-t) [3, 14]: 8230 ng·h/mL; C0 [3, 14]: 11500 ng/mL; clearance [3, 14]: 11 mL/min/kg; half-life [3, 14]: 122 min; AUC(0-inf) [3, 14]: 8600 ng·h/mL; Cmax [3, 14]: 8620 ng/mL; MRT last [3, 14]: 2.19 h; Vd ([3]; after iv gemcitabine 5.29 mg/kg, read-out: Vdss): 1.61 L/kg; half-life ([4]; human liver microsomes): 20.1 min; Compound Remaining (% of 0 min) 0 min ([4]; human liver microsomes, 0 min): 100 % of 0 min; Compound Remaining (% of 0 min) 5 min ([4]; human liver microsomes, 5 min): 113 % of 0 min; Compound Remaining (% of 0 min) 15 min ([4]; human liver microsomes, 15 min): 69.1 % of 0 min; Compound Remaining (% of 0 min) 30 min ([4]; human liver microsomes, 30 min): 48.6 % of 0 min; Compound Remaining (% of 0 min) 45 min ([4]; human liver microsomes, 45 min): 22.4 % of 0 min; Compound Remaining (% of 0 min) control ([4]; human liver microsomes, control): 98.1 % of 0 min; microsomal CLint ([4]; human, liver microsomes): 68.8 µL/min/mg; Slope Mean ± SE [5]: −0.00684 ± 0.001905; half-life ([5]; read-out: t1/2 mean ± SE): 101 ± 28.2 min; Slope Mean ± SE [6]: 0.00055 ± 0.001504; Slope Mean ± SE [7]: −0.000512 ± 0.001111; half-life ([7]; read-out: t1/2 mean ± SE): 1350 ± 2930 min; Slope Mean ± SE [8]: 0.000126 ± 0.001156; Slope Mean ± SE [9]: 0.001817 ± 0.001897; MRT inf [10]: 2.5 h; injected dose recovered in the urine [11]: 90%; share of the dose recovered in urine found as this species [11]: 1%
